Laboratory results: patent US11911386B2, “Methods of treating B-cell proliferative disorder” (BeiGene Switzerland GmbH, priority 2022, dated 2024)
Where “and” joins values, the source holds several entries; their conditions need not be identical. Equal entries are not always repeated. Where two headings read alike, the source gives them in different places.

C=CC(=O)N1CCC([C@@H]2CCNc3c(C(N)=O)c(-c4ccc(Oc5ccccc5)cc4)nn32)CC1 [zanubrutinib, (S)-7-(1-acryloylpiperidin-4-yl)-2-(4-phenoxyphenyl)-4,5,6,7-tetrahydropyrazolo[1,5-a]pyrimidine-3-carboxamide]
Opportunistic infection AESI, EAIR (During Coadministration): 0.67 per 100 person-months
Opportunistic infection AESI, patients (During Coadministration): 2.9%
Opportunistic infection SAEs, EAIR (During Coadministration): 0.50 per 100 person-months
Patients with at least 1 AESI (During Coadministration): 67 (48.6) n (%)
Petechiae (hemorrhage AESI) (During Coadministration): 0.7%
Platelet count decreased PT (During Coadministration): 2.2%
Platelet count decreased ≥Grade 3 (During Coadministration): 1.4%
Purpura (hemorrhage AESI) (During Coadministration): 0.0%
SAEs of opportunistic infections, patients (During Coadministration): 2.2% and 2.9%
Second primary malignancies AESI leading to dose interruption (During Coadministration): 1.4%
Second primary malignancies AESI ≥Grade 3, EAIR (During Coadministration): 0.33 per 100 person-months
Second primary malignancies AESI ≥Grade 3, patients (During Coadministration): 1.4%
Second primary malignancies AESI, EAIR (During Coadministration): 0.72 per 100 person-months
Second primary malignancies AESI, patients (During Coadministration): 2.9%
Sepsis (During Coadministration): 2.2%
Serious AESI (During Coadministration): 29 (21.0) n (%)
Serious atrial fibrillation and flutter AESI, EAIR (During Coadministration): 0.0 per 100 person-months
Serious atrial fibrillation and flutter AESI, patients (During Coadministration): 0.0%
Serious external ear neoplasm malignant (During Coadministration): 1 (0.7%) n (%)
Serious haematuria (During Coadministration): 0 (0.0%) n (%)
Serious haematuria (major hemorrhage) (During Coadministration): 0 (0.0%) n (%)
Serious hemorrhage AESI, EAIR (During Coadministration): 0.0 per 100 person-months
Serious hemorrhage AESI, patients (During Coadministration): 0.0%
Serious hypertension AESI, EAIR (During Coadministration): 0.16 per 100 person-months
Serious infection AESI, EAIR (During Coadministration): 6.16 per 100 person-months
Serious major hemorrhage AESI, EAIR (During Coadministration): 0.0 per 100 person-months
Serious major hemorrhage AESI, patients (During Coadministration): 0.0%
Serious neutropenia AESI, EAIR (During Coadministration): 1.11 per 100 person-months
Serious neutropenia AESI, patients (During Coadministration): 4.3%
Serious neutropenic sepsis (During Coadministration): 0%
Serious neutrophil count decreased (During Coadministration): 0.7%
Serious second primary malignancies AESI, EAIR (During Coadministration): 0.33 per 100 person-months
Serious second primary malignancies AESI, patients (During Coadministration): 1.4%
Serious squamous cell carcinoma of skin (During Coadministration): 0 (0.0%) n (%)
Sinusitis (During Coadministration): 2.9%
Skin cancer AESI ≥Grade 3, EAIR (During Coadministration): 0.00 per 100 person-months
Skin cancer AESI, EAIR (During Coadministration): 0.17 per 100 person-months
Skin cancer AESI, patients (During Coadministration): 0.7%
Skin cancer SAE, EAIR (During Coadministration): 0.00 per 100 person-months
Squamous cell carcinoma of skin (During Coadministration): 0.7%
Squamous cell carcinoma of skin ≥Grade 3 (During Coadministration): 0 (0.0%) n (%)
Thrombocytopenia AESI leading to dose interruption (During Coadministration): 1.4%
Thrombocytopenia AESI ≥Grade 3, EAIR (During Coadministration): 0.83 per 100 person-months
Thrombocytopenia AESI ≥Grade 3, patients (During Coadministration): 3.6%
Thrombocytopenia AESI, EAIR (During Coadministration): 1.52 per 100 person-months
Thrombocytopenia AESI, patients (During Coadministration): 6.5%
Thrombocytopenia PT (During Coadministration): 4.3%
Viral upper respiratory tract infection (During Coadministration): 2.2%
Anemia AESI ≥Grade 3, EAIR (Prior to Coadministration): 0.54 per 100 person-months
Anemia AESI, EAIR (Prior to Coadministration): 1.07 per 100 person-months
Atrial fibrillation PT (Prior to Coadministration): 1.7%
Atrial fibrillation and flutter AESI Grade ≥3, EAIR (Prior to Coadministration): 0.13 per 100 person-months
Atrial fibrillation and flutter AESI Grade ≥3, patients (Prior to Coadministration): 1.7%
Atrial fibrillation and flutter AESI, EAIR (Prior to Coadministration): 0.13 per 100 person-months
Atrial fibrillation and flutter AESI, patients (Prior to Coadministration): 1.7%
Atrial flutter PT (Prior to Coadministration): 0.0%
Basal cell carcinoma (Prior to Coadministration): 4.2%
Basal cell carcinoma leading to dose interruption (Prior to Coadministration): 2 (1.7%) n (%)
Basal cell carcinoma ≥Grade 3 (Prior to Coadministration): 2 (1.7%) n (%)
Bronchopulmonary aspergillosis (Prior to Coadministration): 3 (2.5%) n (%)
External ear neoplasm malignant leading to dose interruption (Prior to Coadministration): 2 (1.7%) n (%)
Febrile neutropenia PT (Prior to Coadministration): 1.7%
Grade 3 or higher AESI (Prior to Coadministration): 69 (58.0) n (%)
Haematuria (hemorrhage AESI) (Prior to Coadministration): 8.4%
Haematuria (major hemorrhage) (Prior to Coadministration): 2 (1.7%) n (%)
Haematuria (major hemorrhage) ≥Grade 3 (Prior to Coadministration): 2 (1.7%) n (%)
Haematuria leading to dose interruption (Prior to Coadministration): 2 (1.7%) n (%)
Haematuria ≥Grade 3 (Prior to Coadministration): 2 (1.7%) n (%)
Hemorrhage AESI leading to dose interruption (Prior to Coadministration): 3.4%
Hemorrhage AESI leading to dose reduction (Prior to Coadministration): 1.7%
Hemorrhage AESI ≥Grade 3, EAIR (Prior to Coadministration): 0.19 per 100 person-months
Hemorrhage AESI ≥Grade 3, patients (Prior to Coadministration): 2.5%
Hemorrhage AESI, EAIR (Prior to Coadministration): 9.70 per 100 person-months
Hemorrhage AESI, patients (Prior to Coadministration): 55.5%
Hepatitis B reactivation AESI (Prior to Coadministration): 2.5%
Hepatitis B reactivation AESI ≥Grade 3 (Prior to Coadministration): 2 (1.7%) n (%)
Hypertension AESI ≥Grade 3, EAIR (Prior to Coadministration): 0.56 per 100 person-months
Hypertension AESI ≥Grade 3, patients (Prior to Coadministration): 6.7%
Hypertension AESI, EAIR (Prior to Coadministration): 1.13 per 100 person-months
Hypertension AESI, patients (Prior to Coadministration): 12.6%
Infection AESI leading to death (Prior to Coadministration): 0.8%
Infection AESI leading to dose reduction (Prior to Coadministration): 7.6%
Infection AESI leading to treatment discontinuation (Prior to Coadministration): 1.7%
Infection AESI ≥Grade 3, EAIR (Prior to Coadministration): 3.82 per 100 person-months
Infection AESI, EAIR (Prior to Coadministration): 18.08 per 100 person-months
Major hemorrhage AESI leading to dose interruption (Prior to Coadministration): 1.7%
Major hemorrhage AESI ≥Grade 3, EAIR (Prior to Coadministration): 0.19 per 100 person-months
Major hemorrhage AESI ≥Grade 3, patients (Prior to Coadministration): 2.5%
Major hemorrhage AESI, EAIR (Prior to Coadministration): 0.25 per 100 person-months
Major hemorrhage AESI, patients (Prior to Coadministration): 3.4%
Malignant melanoma (Prior to Coadministration): 2 (1.7%) n (%)
Meningitis cryptococcal (Prior to Coadministration): 2 (1.7%) n (%)
Neutropenia AESI leading to dose reduction (Prior to Coadministration): 2.5%
Neutropenia AESI leading to treatment interruption (Prior to Coadministration): 7.6%
Neutropenia AESI ≥Grade 3, EAIR (Prior to Coadministration): 1.74 per 100 person-months
Neutropenia AESI ≥Grade 3, patients (Prior to Coadministration): 20.2%
Neutropenia AESI, EAIR (Prior to Coadministration): 2.72 per 100 person-months
Neutropenia AESI, patients (Prior to Coadministration): 28.6%
Neutropenic sepsis PT (Prior to Coadministration): 0.8%
Neutropenic sepsis ≥Grade 3 (Prior to Coadministration): 0.8%
Neutrophil count decreased leading to dose reduction (Prior to Coadministration): 0.8%
Opportunistic infection AESI leading to dose reduction (Prior to Coadministration): 3.4%
Opportunistic infection AESI leading to treatment discontinuation (Prior to Coadministration): 0.8%
Opportunistic infection AESI ≥Grade 3, EAIR (Prior to Coadministration): 0.38 per 100 person-months
Opportunistic infection AESI ≥Grade 3, patients (Prior to Coadministration): 6 (5.0%) n (%)
Opportunistic infection AESI, EAIR (Prior to Coadministration): 0.64 per 100 person-months
Opportunistic infection AESI, patients (Prior to Coadministration): 8.4%
Opportunistic infection SAEs, EAIR (Prior to Coadministration): 0.38 per 100 person-months
Patients with at least 1 AESI (Prior to Coadministration): 115 (96.6) n (%)
Petechiae (hemorrhage AESI) (Prior to Coadministration): 5.9%
Platelet count decreased PT (Prior to Coadministration): 3.4%
Platelet count decreased ≥Grade 3 (Prior to Coadministration): 0.8%
Purpura (hemorrhage AESI) (Prior to Coadministration): 5.9%
SAEs of opportunistic infections, patients (Prior to Coadministration): 5.0% and 8.4%
Second primary malignancies AESI leading to dose interruption (Prior to Coadministration): 4.2%
Second primary malignancies AESI ≥Grade 3, EAIR (Prior to Coadministration): 0.32 per 100 person-months
Second primary malignancies AESI ≥Grade 3, patients (Prior to Coadministration): 4.2%
Second primary malignancies AESI, EAIR (Prior to Coadministration): 1.05 per 100 person-months
Second primary malignancies AESI, patients (Prior to Coadministration): 12.6%
Serious AESI (Prior to Coadministration): 53 (44.5) n (%)
Serious anemia AESI, EAIR (Prior to Coadministration): 0.06 per 100 person-months
Serious atrial fibrillation and flutter AESI, EAIR (Prior to Coadministration): 0.06 per 100 person-months
Serious atrial fibrillation and flutter AESI, patients (Prior to Coadministration): 0.8%
Serious external ear neoplasm malignant (Prior to Coadministration): 2 (1.7%) n (%)
Serious haematuria (Prior to Coadministration): 2 (1.7%) n (%)
Serious haematuria (major hemorrhage) (Prior to Coadministration): 2 (1.7%) n (%)
Serious hemorrhage AESI, EAIR (Prior to Coadministration): 0.25 per 100 person-months
Serious hemorrhage AESI, patients (Prior to Coadministration): 3.4%
Serious infection AESI, EAIR (Prior to Coadministration): 3.31 per 100 person-months
Serious major hemorrhage AESI, EAIR (Prior to Coadministration): 0.25 per 100 person-months
Serious major hemorrhage AESI, patients (Prior to Coadministration): 3.4%
Serious neutropenia AESI, EAIR (Prior to Coadministration): 0.26 per 100 person-months
Serious neutropenia AESI, patients (Prior to Coadministration): 3.4%
Serious neutropenic sepsis (Prior to Coadministration): 0.8%
Serious neutrophil count decreased (Prior to Coadministration): 0.0%
Serious second primary malignancies AESI, EAIR (Prior to Coadministration): 0.39 per 100 person-months
Serious second primary malignancies AESI, patients (Prior to Coadministration): 5.0%
Serious squamous cell carcinoma of skin (Prior to Coadministration): 2 (1.7%) n (%)
Skin cancer AESI ≥Grade 3, EAIR (Prior to Coadministration): 0.26 per 100 person-months
Skin cancer AESI, EAIR (Prior to Coadministration): 0.69 per 100 person-months
Skin cancer AESI, patients (Prior to Coadministration): 8.4%
Skin cancer SAE, EAIR (Prior to Coadministration): 0.26 per 100 person-months
Squamous cell carcinoma of skin (Prior to Coadministration): 5.0%
Squamous cell carcinoma of skin ≥Grade 3 (Prior to Coadministration): 2 (1.7%) n (%)
Thrombocytopenia AESI leading to dose interruption (Prior to Coadministration): 0.8%
Thrombocytopenia AESI ≥Grade 3, EAIR (Prior to Coadministration): 0.26 per 100 person-months
Thrombocytopenia AESI ≥Grade 3, patients (Prior to Coadministration): 3.4%
Thrombocytopenia AESI, EAIR (Prior to Coadministration): 0.79 per 100 person-months
Thrombocytopenia AESI, patients (Prior to Coadministration): 9.2%
Thrombocytopenia PT (Prior to Coadministration): 6.7%
Tumor lysis syndrome AESI (all study periods): No AESI of tumor lysis syndrome were reported
